The values that follow come from patent US20030064380A1, “Anergy-regulated molecules” (The Center For Blood Research, Inc., priority 2001, published 2003).

The test system of this assay is Th2 cells. Nature of the assay: cytokine mRNA levels in Th2 cells after ionomycin pretreatment. The class given is cell-based. The method, then:
Total cellular RNA was purified from resting cells or cells stimulated with APC and antigen or anti-CD3 plus anti-CD28 for 4 h, using Ultraspec reagent (Biotecx) and analyzed using the RiboQuant multiprobe RNase protection kit and specific multi-set probes (Pharmingen) according to the manufacturer's instructions. Jurkat cells were transfected by electroporation in serum-free medium with pulses of 250 V and 960 μF with […] of pEGFPN1 (Clontech) or pNLS-NFAT1 (ST2+5+8) (Okamura et al., (2000) Mol. Cell. 6: 539-550). RNA from transiently transfected Jurkat cells was obtained after selecting transfected cells for expression of a cotransfected murine CD4 plasmid using magnetic beads (Dynal).
Thus the net effect of a tolerising stimulus on T cells is to skew the cytokine response towards production of the immunosuppressive cytokine […], while down-regulating production of multiple other cytokines and chemokines associated with a productive immune response.

Each structure is given as a SMILES string.

As to `C[C@H](CCC(=O)O)C[C@H](C)C[C@H](C)C(=O)/C=C(\O)[C@H](C)C[C@H](C)C/C=C/[C@@H](C)[C@@H](O)[C@@H](C)[C@@H](O)C[C@@H]1CC[C@@](C)([C@H]2CC[C@@](C)([C@@H](C)O)O2)O1` [Ionomycin, ionomycin], the IL-10 transcript levels entry is “not affected”; the “reduction in mRNA levels of IL-4, IL-5 and IL-13” value is on record as “approximately 70%”.
